Assay results: US20230303540A1 (Merck Sharp & Dohme LLC, priority 2020, published 2023)

Molecular target: GST-tagged truncated human mutant G2019S LRRK2 (Homo sapiens, UniProt Q5S007, G2019S)
Test: LRRK2 G2019S Km ATP LanthaScreen assay
Type: biochemical
Conditions: 134 μM ATP (Km ATP), LRRKtide substrate, mean IC50 values; read-out: LRRK2 pIC50 (converted)
How it was run: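 Compound preincubated 15 min at room temperature with enzyme in pH 8.5 Tris buffer (10 mM MgCl2). Then a 90 min reaction at ambient temperature with 134 μM (Km) ATP and fluorescein-LRRKtide. EDTA stop, Tb anti-phospho antibody TR-FRET; […]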

Row | SMILES | IC50 [nM]
1 | Cc1c(Nc2ncc3cc(Cl)c(N4CCN(C5COC(C)(C)C5)CC4)cc3n2)cnn1C1CC1 (single isomer, unassigned) [Ex-12.5, 6-chloro-N-(1-cyclopropyl-5-methyl-1H-pyrazol-4-yl)-7-(4-(5,5-dimethyltetrahydrofuran-3-yl)piperazin-1-yl)quinazolin-2-amine] | 0.56
2 | FC(F)(F)C1(n2ncc(Nc3ncc4cc(Cl)c(N5CCN(C6COC6)CC5)cc4n3)c2Cl)CC1 [Ex.3.23, 6-chloro-N-{5-chloro-1-[1-(trifluoromethyl)cyclopropyl]-1H-pyrazol-4-yl}-7-[4-(oxetan-3-yl)piperazin-1-yl]quinazolin-2-amine] | 3.45
3 | COC1CC(Cn2ncc(Nc3ncc4cc(Cl)c(N5CCN(C6(C)COC6)CC5)cc4n3)c2Cl)C1 (stereo not drawn) [Ex-4.69, 6-chloro-N-{5-chloro-1-[(3-methoxycyclobutyl)methyl]-1H-pyrazol-4-yl}-7-[4-(3-methyloxetan-3-yl)piperazin-1-yl]quinazolin-2-amine] | 3.23
4 | C[C@]1(O)[C@@H]2CC[C@H]1CN(c1cc3nc(Nc4cnn(C5CC5(F)F)c4Cl)ncc3cc1Cl)C2 (single isomer, unassigned) [Ex-3.41, (R) or (S) (8-syn)-3-(6-chloro-2-{[5-chloro-1-(2,2-difluorocyclopropyl)-1H-pyrazol-4-yl]amino}quinazolin-7-yl)-8-methyl-3-azabicyclo[3.2.1]octan-8-ol] | 23
5 | C[C@H]1COC(=O)N1c1ccc2cnc(Nc3cnn(C4CCN(C5COC5)CC4F)c3Cl)nc2c1 (stereo in doubt) [Ex-7.3, (4S)-3-[2-({5-chloro-1-[(3S,4S)-3-fluoro-1-(oxetan-3-yl)piperidin-4-yl]-1H-pyrazol-4-yl}amino)quinazolin-7-yl]-4-methyl-1,3-oxazolidin-2-one] | 0.976
6 | OC1COCC1N1CCN(c2cc3nc(Nc4cnn(C(F)F)c4)ncc3cc2Cl)CC1 (single isomer, unassigned) [Ex-6.47, (3S,4S) or (3R,4R) 4-(4-(6-chloro-2-((1-(difluoromethyl)-1H-pyrazol-4-yl)amino)quinazolin-7-yl)piperazin-1-yl)tetrahydrofuran-3-ol] | 0.85
7 | Cc1cc(Nc2ncc3cc(Cl)c(N4CCN(C5(C)COCC5O)[C@@H](C)C4)cc3n2)n(C2CC2)n1 (single isomer, unassigned) [Ex-13.9, 4-((S or R) (3S,4S) or (3R,4R)-4-(6-chloro-2-((1-cyclopropyl-3-methyl-1H-pyrazol-5-yl)amino)quinazolin-7-yl)-2-methylpiperazin-1-yl)-4-methyltetrahydrofuran-3-ol] | 97.5
8 | C[C@H]1COC(=O)N1c1ccc2cnc(Nc3cnn([C@@H]4CCN(C5COC5)C[C@H]4F)c3Cl)nc2c1 [Ex-7.2, (4S)-3-[2-({5-chloro-1-[(3R,4R)-3-fluoro-1-(oxetan-3-yl)piperidin-4-yl]-1H-pyrazol-4-yl}amino)quinazolin-7-yl]-4-methyl-1,3-oxazolidin-2-one] | 0.625
9 | CC(C)(O)CC(O)Cn1ncc(Nc2ncc3cc(Cl)c(N4CCC(C)(O)CC4)cc3n2)c1Cl (stereo not drawn) [Ex-6.5, 1-(5-chloro-4-{[6-chloro-7-(4-hydroxy-4-methylpiperidin-1-yl)quinazolin-2-yl]amino}-1H-pyrazol-1-yl)-4-methylpentane-2,4-diol] | 27.3
10 | CC1CCC12CN(c1cc3nc(Nc4cnn(C5(C)CC5)c4Cl)ncc3cc1Cl)C2 (stereo not drawn) [Ex-4.24, 6-chloro-N-[5-chloro-1-(1-methylcyclopropyl)-1H-pyrazol-4-yl]-7-(5-methyl-2-azaspiro[3.3]heptan-2-yl)quinazolin-2-amine] | 218
11 | Cc1c(Nc2ncc3cc(Cl)c(N4CCC(C)(O)CC4C)cc3n2)cnn1C1CC1 (single isomer, unassigned) [Ex-9.2, (2R,4S or 2S,4R, or 2S,4S, or 2R,4R)-1-(6-Chloro-2-((1-cyclopropyl-5-methyl-1H-pyrazol-4-yl)amino)quinazolin-7-yl)-2,4-dimethylpiperidin-4-ol] | 1.06
12 | Cc1c(Nc2cc3cc(N4CCN(C5(C)COCC5O)CC4)c(Cl)cc3cn2)cnn1C1CC1(F)F (single isomer, unassigned) [Ex-6.53, (3S,4S) or (3R,4R) 4-(4-(7-chloro-3-((1-(2,2-difluorocyclopropyl)-5-methyl-1H-pyrazol-4-yl)amino)isoquinolin-6-yl)piperazin-1-yl)-4-methyltetrahydrofuran-3-ol] | 0.522
13 | Cc1c(Nc2ncc3cc(Cl)c(N4C[C@H]5CC[C@@H](C4)[C@@]5(C)O)cc3n2)cnn1C1CC1 [Ex-3.27, (8-syn)-3-{6-chloro-2-[(1-cyclopropyl-5-methyl-1H-pyrazol-4-yl)amino]quinazolin-7-yl}-8-methyl-3-azabicyclo[3.2.1] octan-8-ol] | 0.486
14 | FC(F)Cn1ncc(Nc2ncc3cc(Cl)c(N4CCC(N5CCCC5)CC4)cc3n2)c1Cl [Ex-1.16, 6-chloro-N-[5-chloro-1-(2,2-difluoroethyl)-1H-pyrazol-4-yl]-7-[4-(pyrrolidin-1-yl)piperidin-1-yl]quinazolin-2-amine] | 16
15 | Cc1cc(Nc2ncc3cc(Cl)c(N4CCN(C5(C)COC5)CC4)cc3n2)sn1 [Ex-4.62, 6-chloro-7-[4-(3-methyloxetan-3-yl)piperazin-1-yl]-N-(3-methyl-1,2-thiazol-5-yl)quinazolin-2-amine] | 0.793
16 | CC1(O)CCN(c2c(Cl)cc3cnc(Nc4cnn(C56CC(C5)C6)c4Cl)nc3c2Cl)CC1 [Ex-6.12, 1-(2-{[1-(bicyclo[1.1.1]pentan-1-yl)-5-chloro-1H-pyrazol-4-yl]amino}-6,8-dichloroquinazolin-7-yl)-4-methylpiperidin-4-ol] | 1.24
17 | Cc1c(Nc2ncc3cc(Cl)c(N4CCC(C)(O)CC4)cc3n2)cnn1C1CC1(F)F (single isomer, unassigned) [Ex-6.10, 1-(6-chloro-2-{[1-(2,2-(R) or (S)difluorocyclopropyl)-5-methyl-1H-pyrazol-4-yl]amino}quinazolin-7-yl)-4-methylpiperidin-4-ol] | 0.2
18 | CC1(N2CCN(c3cc4nc(Nc5cnn(CC6C[C@H](F)[C@@H](F)C6)c5)ncc4cc3Cl)CC2)COC1 [Ex-4.66, 6-chloro-N-(1-{[(3S,4S)-3,4-difluorocyclopentyl]methyl}-1H-pyrazol-4-yl)-7-[4-(3-methyloxetan-3-yl)piperazin-1-yl]quinazolin-2-amine] | 8.88
19 | CC1(N2CCN(c3cc4nc(Nc5cnn(C6(C)CC6)c5)ncc4cc3Cl)CC2)COC1 [Ex-4.16, 6-chloro-N-[1-(1-methylcyclopropyl)-1H-pyrazol-4-yl]-7-[4-(3-methyloxetan-3-yl)piperazin-1-yl]quinazolin-2-amine] | 1.12
20 | COC1CCC1n1ncc(Nc2ncc3cc(Cl)c(N4CCC(C)(O)CC4)cc3n2)c1C (single isomer, unassigned) [Ex-6.20, 1-[6-chloro-2-({1-[(1R,2R) or (1S,2S)-2-methoxycyclobutyl]-5-methyl-1H-pyrazol-4-yl}amino)quinazolin-7-yl]-4-methylpiperidin-4-ol] | 2.53
21 | Cc1c(Nc2ncc3ccc(N4C(=O)OCC4C4CC4)cc3n2)cnn1C1CCOCC1 (single isomer, unassigned) [Ex-7.13, (R) or (S) 4-cyclopropyl-3-(2-{[5-methyl-1-(oxan-4-yl)-1H-pyrazol-4-yl]amino}quinazolin-7-yl)-1,3-oxazolidin-2-one] | 11.4
